Source: ChEMBL document CHEMBL1125282, “Evaluation of desferrithiocin and its synthetic analogues as orally effective iron chelators” (1991)

Assays:
Assay type in all cases: functional
Rattus norvegicus [1] = experiment: Total iron output induced by the compound (oral administration) and bile duct cannulated rat and the drug-promoted iron excretion was monitored in the bile at 12 hr
Rattus norvegicus [2] = experiment: Total iron output induced by the compound (oral administration) and bile duct cannulated rat and the drug-promoted iron excretion was monitored in the bile at 15 hr; also: test concentration or dose not given here
Rattus norvegicus [3] = experiment: Total iron output induced by the compound (oral administration) and bile duct cannulated rat and the drug-promoted iron excretion was monitored in the bile at 18 h
Rattus norvegicus [4] = experiment: Total iron output induced by the compound (oral administration) and bile duct cannulated rat and the drug-promoted iron excretion was monitored in the bile at 6 hr; also: test concentration or dose not given here
Rattus norvegicus [5] = experiment: Total iron output induced by the compound (oral administration) and bile duct cannulated rat and the drug-promoted iron excretion was monitored in the bile at 9 h
Rattus norvegicus [6] = experiment: Total iron output induced by the compound (oral administration) and bile duct cannulated rat and the drug-promoted iron excretion was monitored in the urine at 24 hr
Rattus norvegicus [7] = experiment: Total iron output induced by the compound (oral administration) and bile duct cannulated rat and the drug-promoted iron excretion was monitored in the bile at 21 hr; also: test concentration or dose not given here
Rattus norvegicus [8] = experiment: Total iron output induced by the compound (oral administration) and bile duct cannulated rat and the drug-promoted iron excretion was monitored in the bile at 24 hr
Rattus norvegicus [9] = experiment: Total iron output induced by the compound (oral administration) and bile duct cannulated rat and the drug-promoted iron excretion was monitored in the bile at 3h; also: test concentration or dose not given here
Rattus norvegicus [10] = experiment: Total iron output induced by the compound (sc administration) and bile duct cannulated rat and the drug-promoted iron excretion was monitored in the urine at 24 hr
Rattus norvegicus [11] = experiment: Total iron output induced by the compound (sc administration) and bile duct cannulated rat and the drug-promoted iron excretion was monitored in the bile at 12 hr
Rattus norvegicus [12] = experiment: Total iron output induced by the compound (sc administration) and bile duct cannulated rat and the drug-promoted iron excretion was monitored in the bile at 15 hr
Rattus norvegicus [13] = experiment: Total iron output induced by the compound (sc administration) and bile duct cannulated rat and the drug-promoted iron excretion was monitored in the bile at 18 h
Rattus norvegicus [14] = experiment: Total iron output induced by the compound (sc administration) and bile duct cannulated rat and the drug-promoted iron excretion was monitored in the bile at 21 hr
Rattus norvegicus [15] = experiment: Total iron output induced by the compound (sc administration) and bile duct cannulated rat and the drug-promoted iron excretion was monitored in the bile at 24 hr
Rattus norvegicus [16] = experiment: Total iron output induced by the compound (sc administration) and bile duct cannulated rat and the drug-promoted iron excretion was monitored in the bile at 3h
Rattus norvegicus [17] = experiment: Total iron output induced by the compound (sc administration) and bile duct cannulated rat and the drug-promoted iron excretion was monitored in the bile at 6 hr
Rattus norvegicus [18] = experiment: Total iron output induced by the compound (sc administration) and bile duct cannulated rat and the drug-promoted iron excretion was monitored in the bile at 9 h

Structure (SMILES)	Total iron output (Rattus norvegicus [1]) [µg/kg]	Total iron output (Rattus norvegicus [2]) [µg/kg]	Total iron output (Rattus norvegicus [3]) [µg/kg]	Total iron output (Rattus norvegicus [4]) [µg/kg]	Total iron output (Rattus norvegicus [5]) [µg/kg]	Total iron output (Rattus norvegicus [6]) [µg/kg]	Total iron output (Rattus norvegicus [7]) [µg/kg]	Total iron output (Rattus norvegicus [8]) [µg/kg]	Total iron output (Rattus norvegicus [9]) [µg/kg]	Total iron output (Rattus norvegicus [10]) [µg/kg]	Total iron output (Rattus norvegicus [11]) [µg/kg]	Total iron output (Rattus norvegicus [12]) [µg/kg]	Total iron output (Rattus norvegicus [13]) [µg/kg]	Total iron output (Rattus norvegicus [14]) [µg/kg]	Total iron output (Rattus norvegicus [15]) [µg/kg]	Total iron output (Rattus norvegicus [16]) [µg/kg]	Total iron output (Rattus norvegicus [17]) [µg/kg]	Total iron output (Rattus norvegicus [18]) [µg/kg]
COC(=O)[C@@H]1CSC(c2ncccc2O)=N1	68.7	74.7	81	53.3	59.9	18.7	85.3	93.3	42.9									
COC(=O)[C@H]1N=C(c2ncccc2O)O[C@@H]1C	37.3	43.7	49.4	21.3	20.2	7.6	55.1	60.8	11.3									
CC(=O)N(O)CCCCCNC(=O)CCC(=O)N(O)CCCCCNC(=O)CCC(=O)N(O)CCCCCN [DEFEROXAMINE]	97.1	110.8	119.8	43.9	76.8	16.5	128.7	135	14.7	49.2	173.9	196.2	210.7	219.8	228.4	43.6	105.9	152.8
O=C([O-])[C@@H]1CSC(c2ccccn2)=N1.[Na+]	34.9	42.2	49.6	16.6	26.2	11.9	56.8	62.1	7.1									
O=C([O-])[C@@H]1CSC(c2ncccc2O)=N1.[Na+]	48.5	56.3	65.3	28.1	40.7	21	74.8	81.9	9									
O=C(O)[C@@H]1CSC(c2ccccn2)=N1	39.5	47.1	56.2	22.5	31.2	14.2	64.1	71.9	11.8									
C[C@]1(C(=O)[O-])CSC(c2ncccc2O)=N1.[Na+] [DESFERRITHIOCIN SODIUM]	125.8	135.9	146.8	70	111.7	38.43	153.2	159.3	21.8									
O=C([O-])[C@@H]1CSC(c2ccccc2O)=N1.[Na+]	184.9	210.6	226.8	91.6	143.8	18.67	238.1	246.9	28.6									
C[C@]1(C(=O)NCCCCNCCCNC(=O)[C@@]2(C)CSC(c3ncccc3O)=N2)CSC(c2ncccc2O)=N1	56.6	65.8	74	30	45.2	18	82.2	92.8	13.2									
C[C@]1(C(=O)O)CSC(c2ncccc2O)=N1 [DESFERRITHIOCIN]	234.8	245.6	253.7	143	205.3	27	263.1	268.5	64.5									
O=C(O)[C@@H]1CSC(c2ncccc2O)=N1	182.3	194	201.3	98.2	154	14.1	209.6	217.2	28.7									
